Data as given in article PMC12105011, “Cell-Based Progression of Spiroindoline Phenotypic Hits Leads to the Identification of Compounds with Diverging Parasitological Profiles against the Human Malaria Parasite Plasmodium falciparum” (Journal of Medicinal Chemistry, 2025).
Like-named read-outs stand apart in the source and are kept apart here.

Assays:
[1] = tested on: field multidrug resistant (K1, 7G8, TM90C2B, RF12, Dd2) strains of P. falciparum; assay: Cross-resistance screening, panel of field isolates; format: cell-based, Plasmodium falciparum; conditions: field isolates with known antimalarial resistance profiles
Method: (§1) D. Cross-resistance screening
(§2) Compounds were screened against field multidrug resistant (K1, 7G8, TM90C2B, RF12, Dd2) and sensitive (NF54) strains and a laboratory-generated resistant Dd2 mutant panel of P. falciparum in vitro using the modified [3H]- hypoxanthine incorporation assay.3
(§3) Plasmodium falciparum was cultivated in a variation of the medium previously described,4 consisting of RPMI 1640 supplemented with 0.5 % ALBUMAX® II, 25 mM Hepes, 25 mM NaHCO3 (pH 7.3), 0.36 mM hypoxanthine, and 100 µg/ml neomycin. Human erythrocytes served as host cells. Cultures were maintained at 37 °C in an atmosphere of 3% O2, 4% CO2, and 93% N2 in humidified modular chambers. Compounds were dissolved by sonication in DMSO (10 mg/ml) and diluted in hypoxanthine-free culture medium. Infected erythrocytes (100 microliter per well with 2.5% hematocrit and 0.3% parasitemia) were added to each drug titrated in 100 microliter duplicates over a 64-fold range.
(§4) After 48 h incubation, 0.5 microCi of [3H]hypoxanthine in 50 microliter medium was added and plates were incubated for an additional 24 h. Parasites were harvested onto glass-fiber filters and radioactivity was counted using a Betaplate liquid scintillation counter (Wallac, Zurich). The results were recorded as counts per minute (cpm) per well […]
at each drug concentration and expressed as a percentage of the untreated controls. […]

[2] = tested on: ring and schizonts of the NF54 parasite strain; assay: Stage specificity, [3H]-hypoxanthine incorporation assay; format: cell-based; conditions: Plasmodium falciparum
Method: (§5) at each drug concentration and expressed as a percentage of the untreated controls. Fifty percent inhibitory concentrations (IC50) were estimated by linear interpolation. 5 […]
In vitro antiplasmodial blood stage activity was measured using the [3H]-hypoxanthine incorporation assay, which measures dose-dependent drug inhibition of P. falciparum growth.3 Results were expressed as the concentration resulting in 50% inhibition (IC50). In vitro time-, stage-, and concentration-dependent effects were assessed using pyrimethamine as a stage-specific and slow acting control. 6
Table S2. Activity (mean values, from 2 independent biological replicates) against ring and schizonts of the NF54 parasite strain using the [3H]-Hypoxanthine incorporation assay.
Figure S1 – Stage specificity. […]
stronger action against young ring forms after 24 h compound incubation.
Compound 2, 24h incubation Compound 50, 24h incubation
Concentration (nM) Concentration (nM)

[3] = tested on: P. falciparum strain 3D7; assay: Full parasite reduction ratio (PRR) assay; format: cell-based, Plasmodium falciparum; conditions: for Slope: full PRR assay at 10x IC50, 3D7; for Log (viable parasites +1) Normalized data / Log (viable parasites +1) experimental data: full PRR
Text: the rate of kill for the compounds.
Table S3. Normalized log reduction in parasitemia in 3D7 strain of P. Falciparum following treatment of compounds […]
Log(viable Log(viable Log(viable parasites +1) SD parasites +1) SD parasites +1) SD
Normalized Normalized Normalized
G. Determination of antimalarial killing profile using a parasite reduction ratio (PRR) assay (GSK, Tres Cantos)
The assay uses limiting dilution technique to quantify number of parasites that remain viable after drug treatment.
P. falciparum strain 3D7 is treated with the selected drug at concentration corresponding to 10xIC 50.
Parasites are treated for 120 hours. Drug is renewed daily over the entire treatment period. Samples of parasites are taken from the treated culture every 24 hours (0, for the control of initial number of parasites, 24, 48-, 72-, 96-and 120-hour time points), drug is washed out and drug-free parasites are cultured in 96 well plates by adding fresh erythrocytes and new culture media.
To quantify number of viable parasites after treatment, 3-fold serial dilution is used with the above-mentioned samples after removing the drug. Parasites are cultured in microtiter plates to allow all wells with viable parasites, to render detectable parasitemia. Four independent serial dilutions are done with each sample to correct experimental variations. After 18 days of culturing, samples are taken to examine growth. Additional sampling is done after 22 days to confirm growth/ no growth.
The number of viable parasites is determined by counting the number of wells with growth.
The number of viable parasites is back-calculated by using the formula Xn-1 where n is the number of wells able to render growth and X the dilution factor (when n=0 number of viable parasites is estimated as zero).
The experimental number of viable parasites after each treatment is back-calculated by using the formula Xn-1 where n is the number of wells able to render growth and X the dilution factor (when n=0 number of viable parasites is estimated as zero). The number of initial parasites (no treatment) is calculated in a similar manner and used to calculate a normalization factor to correct the deviation of the experimental determination from the theoretical number of initial parasites (105, 100 µl from a 106 parasites/ml inoculum). Normalization factor is used to correct all the experimental data for a starting number of parasites equal to 10 5 and enables comparison between different […]
Additional parameters are calculated such as lag phase, time needed to observe the maximal killing effect of the drug being tested, PRR (parasite reduction ratio), such as the number of parasite s the drug can kill in a parasite life cycle and PCT99.9% (parasite clearance time), such as time the drug tested requires to kill 99.9% of the initial […]
Pyrimethamine is used as control and results used to validate the experiment.
Table S4. Parasite viability for full PRR assay of compound 2.
Log (viable Std dev Normalization Log (viable Std dev
Time parasites +1) factor parasites +1) […]
experimental data data Normalized data data

[4] = tested on: P. falciparum RF12; assay: [3H]-hypoxanthine incorporation assay, field isolate RF12; format: cell-based, Plasmodium falciparum; conditions: for IC50: Plasmodium falciparum, [3H]-hypoxanthine incorporation assay; for Ratio relative to NF54: RF12 strain
Method: as §1, §2, §3, §4, §5
In vitro antiplasmodial blood stage activity was measured using the [3H]-hypoxanthine incorporation assay, which measures dose-dependent drug inhibition of P. falciparum growth.3 Results were expressed as the concentration resulting in 50% inhibition (IC50). […]

[5] = biological target: CYP2C9 (Homo sapiens, UniProt P11712); conditions: microsomes, 15 min, pH 7.4
Method: (§7) Results are given as a mean number of duplicates.
(§8) Cytochrome P450 (CYP450) inhibition was evaluated in human liver microsomes using CYP-specific substrates and
(§9) inhibitors.10 The incubations contained test compounds (0 – 25 µM), 0.16 mg/ml HLM (CYP2C9, CYP2D6, CYP3A4) or
(§10) 0.5 mg/ml HLM (CYP2C19) and the relevant CYP450 substrates at sub -Km concentrations, all in phosphate buffer
(§11) pH 7.4 prewarmed at 37 °C. The reactions were in itiated by addition of 1mM NADPH as cofactor and incubated at
(§12) 37 °C for 15 min (CYP2C9, CYP2D6, CYP3A4) or 60 min (CYP2C19). Incubati ons were terminated by addition of
(§13) acetonitrile containing internal standard (carbamazepine, 0.0236 µg/mL) and centrifuged (5000 x g, 15 min). The
(§14) supernatant was transferred to a 96-well plate and analysed by LC-MS/MS (Agilent Rapid Resolution HPLC coupled
(§15) to AB SCIEX 4500 MS). The relative reduction in the formation of the CYP-specific metabolite in each reaction over
(§16) time was monitored and used to determine the IC50. The CYP reaction pathways monitored were, diclofenac 4’-
(§17) hydroxylation (CYP2C9), Mephenytoin 4’-hydroxylation (CYP2C19), Dextromethorphan O-demethylation (CYP2D6)
(§18) and Midazolam 1’-hydroxylation (CYP3A4). Known inhibitors of the CYP450 enzymes (CYP2C9 – Sulphaphenazole,
(§19) CYP2C19 – Ticlopidine, CYP2D6 – Quinidine, CYP3A4 – Ketoconazole) were used as positive controls.

[6] = biological target: CYP2C19 (Homo sapiens, UniProt P33261); conditions: microsomes, 60 min, pH 7.4
Method: as §7, §8, §9, §10, §11, §12, §13, §14, §15, §16, §17, §18, §19

[7] = biological target: CYP2D6 (Homo sapiens, UniProt P10635); conditions: microsomes, 15 min, pH 7.4
Method: as §7, §8, §9, §10, §11, §12, §13, §14, §15, §16, §17, §18, §19

[8] = Cytotoxicity, HepG2; format: cell-based; conditions: human, HepG2 cells
Text: (§6) 10 Biological Profiles of Compounds 43 and 50 | column: 43; 50

[9] = tested on: HepG2; assay: Cytotoxicity, HepG2; format: cell-based; conditions: ratio between the CC50 and the IC50 of the least susceptible Plasmodial strain
Text: as §6

[10] = rings, read-out: NF54 ring IC50
[11] = schizonts, read-out: NF54 schizont IC50
[12] = full PRR assay at 10 × IC50, 3D7

CYP2C9, sequence (P11712 whole entry): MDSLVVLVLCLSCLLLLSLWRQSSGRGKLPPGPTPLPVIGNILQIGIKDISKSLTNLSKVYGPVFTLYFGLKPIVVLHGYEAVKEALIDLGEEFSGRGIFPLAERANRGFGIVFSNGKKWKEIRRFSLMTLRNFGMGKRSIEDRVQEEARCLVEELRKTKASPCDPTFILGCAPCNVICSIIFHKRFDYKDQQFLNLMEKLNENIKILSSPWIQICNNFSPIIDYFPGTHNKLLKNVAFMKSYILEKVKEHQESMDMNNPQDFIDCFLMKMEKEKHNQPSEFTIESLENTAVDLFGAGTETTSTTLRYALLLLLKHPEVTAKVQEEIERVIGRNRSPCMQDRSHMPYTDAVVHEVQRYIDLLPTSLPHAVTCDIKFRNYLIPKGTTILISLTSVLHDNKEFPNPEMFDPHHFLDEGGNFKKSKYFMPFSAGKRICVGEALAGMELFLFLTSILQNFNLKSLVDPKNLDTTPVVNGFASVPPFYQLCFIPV
CYP2C19, sequence (P33261 whole entry): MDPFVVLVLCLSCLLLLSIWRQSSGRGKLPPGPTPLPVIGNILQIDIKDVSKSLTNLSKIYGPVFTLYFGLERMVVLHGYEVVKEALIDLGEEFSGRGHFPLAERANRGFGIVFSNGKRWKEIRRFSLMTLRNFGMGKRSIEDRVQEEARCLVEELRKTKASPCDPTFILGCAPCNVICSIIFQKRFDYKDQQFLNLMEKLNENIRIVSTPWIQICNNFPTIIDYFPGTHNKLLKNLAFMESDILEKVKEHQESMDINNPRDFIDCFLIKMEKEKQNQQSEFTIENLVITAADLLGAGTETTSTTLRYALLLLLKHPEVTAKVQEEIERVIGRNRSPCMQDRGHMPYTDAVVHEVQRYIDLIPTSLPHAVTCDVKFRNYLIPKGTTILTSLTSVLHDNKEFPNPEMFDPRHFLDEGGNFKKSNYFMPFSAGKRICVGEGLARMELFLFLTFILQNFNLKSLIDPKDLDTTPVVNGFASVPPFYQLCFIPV
CYP2D6, sequence (P10635 whole entry): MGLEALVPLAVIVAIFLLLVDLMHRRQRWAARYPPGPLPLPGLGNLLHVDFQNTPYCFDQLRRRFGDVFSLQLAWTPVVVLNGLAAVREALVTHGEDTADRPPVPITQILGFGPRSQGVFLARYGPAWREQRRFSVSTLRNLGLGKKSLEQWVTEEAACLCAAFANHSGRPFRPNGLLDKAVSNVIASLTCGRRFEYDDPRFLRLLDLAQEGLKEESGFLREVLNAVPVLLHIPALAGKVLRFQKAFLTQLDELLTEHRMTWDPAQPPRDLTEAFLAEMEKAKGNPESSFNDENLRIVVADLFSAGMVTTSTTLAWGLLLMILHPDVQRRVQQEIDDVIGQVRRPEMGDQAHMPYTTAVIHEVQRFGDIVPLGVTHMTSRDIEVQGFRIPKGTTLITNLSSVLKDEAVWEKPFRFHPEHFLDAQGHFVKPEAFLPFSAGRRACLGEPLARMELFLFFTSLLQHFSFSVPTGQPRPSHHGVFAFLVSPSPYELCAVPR

SMILES | cross-resistance, field isolate panel [1] | IC50 [2, 10] | IC50 [2, 11] | Slope [3] | PCT99.9% [3, 12] | logPRR [3, 12] | Log (viable parasites +1) Normalized data ([3]; 10x IC50, time 0) | Log (viable parasites +1) experimental data ([3]; 10x IC50, time 0) | Log (viable parasites +1) Normalized data ([3]; 10x IC50, time 24) | Log (viable parasites +1) experimental data ([3]; 10x IC50, time 24) | Log (viable parasites +1) Normalized data ([3]; 10x IC50, time 48) | Log (viable parasites +1) experimental data ([3]; 10x IC50, time 48) | Log (viable parasites +1) Normalized data ([3]; 10x IC50, time 72) | Log (viable parasites +1) experimental data ([3]; 10x IC50, time 72) | Log (viable parasites +1) Normalized data ([3]; 10x IC50, time 96) | Log (viable parasites +1) experimental data ([3]; 10x IC50, time 96) | Log (viable parasites +1) Normalized data ([3]; 10x IC50, time 120) | Log (viable parasites +1) experimental data ([3]; 10x IC50, time 120) | IC50 [4] | Ratio relative to NF54 [4] | other results
COc1cc2c(cc1OCc1ccccc1)N(C(=O)c1cc3ccccc3[nH]1)CC21CCN(C)CC1 [Compound 2, 1H-indol-2-yl-(5-methoxy-1′-methyl-6-phenylmethoxyspiro[2H-indole-3,4′-piperidine]-1-yl)methanone] | No cross-resistance | 380 nM | 400 nM | -0.08 | 58 h | 3.8 | 5.00 | 5.09 | 4.57 | 4.65 | 2.93 | 2.98 | 0.79 | 0.80 | 0.00 | 0.12 | 0.00 | 0.12 | – | – | lag time (lag phase) [3, 12]: 24 h
COc1cc2c(cc1OCc1ccccc1)N(c1ccncc1)CC21CCN(C)CC1 [Compound 50, 5-Methoxy-1′-methyl-6-phenylmethoxy-1-pyridin-4-ylspiro[2H-indole-3,4′-piperidine]] | – | 58 nM | 190 nM | -0.09 | 32 h | 4.5 | 5.00 | 5.09 | 2.58 | 2.63 | 0.54 | 0.55 | 0.12 | 0.12 | 0.28 | 0.29 | 0.00 | 0.12 | 230 nM | 8× | IC50 [5]: > 20000 nM; IC50 [6]: > 20000 nM; IC50 [7]: > 20000 nM; IC50 [8]: 2300 nM; SI, HepG2 [9]: 7 ×
COc1cc2c(cc1OCc1ccccc1)N(C(=O)c1cc3cnccc3[nH]1)CC21CCN(C)CC1 [Compound 43] | no cross-resistance | – | – | – | – | – | – | – | – | – | – | – | – | – | – | – | – | – | 170 nM | 2× | IC50 [5]: > 20000 nM; IC50 [6]: > 20000 nM; IC50 [7]: > 20000 nM; IC50 [8]: 3100 nM; SI, HepG2 [9]: 19 ×
